Results reported in PMC9738107, “Targeting of the ELR+CXCL/CXCR1/2 Pathway Is a Relevant Strategy for the Treatment of Paediatric Medulloblastomas” (Cells, 2022).

Tests used:
[1] = tested on: Primary mouse astrocytes (C8D1A); assay: IC50 on normal cells (XTT / cell death by PI staining); assay type: cell-based; conditions: C8-D1A, 48 h of treatment
From the text: We then determined the selectivity index (SI), which is the IC50 value for normal cells divided by the IC50 value for tumour cells, to assess the overall toxicity on normal tissues. These IC50 values determined by XTT assays or measurement of cell death by PI staining were nearly equivalent (Figure 3E,F). Primary mouse astrocytes (C8D1A) were selected based on their nervous system lineage. […] The SI was thus 6.44 for Daoy, 2.84 for ONS-76, 10.7 for HD-MB03, and 3.94 for D341Med, indicating selectivity towards tumour cell death at the doses considered. These values are also consistent with those determined for renal cancer cells. […]
1500 Daoy, ONS ‐76, HD ‐MB03 or D341 Med cells were sown in triplicate in plates with six wells and the cells were counted daily for 8 days using a Coulter counter (Ville‐ pinte). The relative number of cells (compared to day 1) was determined daily. […]
Y = Y0 * exp(k * X) (Y= Cell number at day X; Y0= Cell number at day 0 (graphically calculated); X= Day following cell plating (cells plated at X0=0); k= Exponential growth constant rate. Doubling times were compared.
150 Daoy/DR1/DR2/ ONS ‐ 76 and 300 HD ‐ MB03/HR1/HR2 cells were seeded in trip‐ licate in 6‐well plates in the presence or absence of treatment (1 or 2∙5μM MCK140 or DMSO as control). […] The number of clones was quantified using ImageJ software. […]

Daoy cells = assay: CXCL8-induced migration in Boyden chamber; assay type: cell-based, human; conditions: 1 µM, 200 ng/mL CXCL8
Procedure: (§1) Figure 4 C29 reduces proliferation, migration, and invasion of naïve MB cells. (A) Proliferation of Daoy, ONS-76, HD-MB03, and D341Med wild-type cells after treatment with 1 μM C29 or the control (DMSO), n = 3. (B) Clonogenic assay on Daoy (n = 4), ONS-76 (n = 3) and HD -MB03 (n = 5) cells after treatment with control (DMSO) or C29 (1 μM or 2.5 μM). Scale = 500 μm. (C) Cell migration through the Boyden chamber of Daoy and ONS-76 cells specifically attracted by 200 ng/mL CXCL8. Results are expressed as percentage of control (DMSO) (n = 3). Scale = 1000 μm. (D) Spheroid invasion using 3D culture cell assays on Daoy (n = 4) and ONS-76 cells (n = 3) treated with control (DMSO) or C29 at a concentration of 1 μM on day 0, 1, and 2. Results are expressed as percentage of day 0, n = 4. Scale = 500 μm. Statistics were performed using Student t-test for 2 comparisons only or ANOVA test for multiple comparisons. * p < 0.05, ** p < 0.01, *** p < 0.001. […]
(§2) each month by using PlasmoTest Kit (#10L07‐MM, InvivoGen, Toulouse, France). Daoy and ONS‐76 belong to the Shh genetic subgroup, D341‐Med and HD‐MB03 to group 3. […]
(§3) (1, 2∙5, 5μM) for 48 hours. […]
(§4) Data were presented with the percentage of cell death after subtracting the percentage of untreated and unlabelled dead cells.
(§5) Migration in Boyden chambers
(§6) The cells were deprived of serum overnight. […] Cells were counted using ImageJ software (NIH). […]

ONS-76 cells = assay: CXCL8-induced migration in Boyden chamber; assay type: cell-based, human; conditions: ONS-76, 1 µM, 200 ng/mL CXCL8
Procedure: as §1, §2, §3, §4, §5, §6

O=C(Nc1cccc(Cl)c1)Nc1nc2ccc([N+](=O)[O-])cc2s1 [C29, 1-(3-chlorophenyl)-3-(6-nitrobenzo[d]thiazol-2-yl) urea]
IC50 [1]: 19.3 µM | CXCL8-induced migration (Daoy cells): blocked CXCL8-induced migration | CXCL8-induced migration (ONS-76 cells): blocked CXCL8-induced migration
